Reference: the supplement of paper PMC10307832

Tests used:
Test in all cases: relative viability (nuclei count vs DMSO), 5 days (fraction); higher = more cells survive
[1] = compound: C1=CC(=CC=C1NC(=S)NNC2=C(C=C(C=C2[N+](=O)[O-])C(F)(F)F)[N+](=O)[O-])F [Kobe2602] + O=C(CCCCCCC(=O)Nc1ccccc1)NO [Vorinostat] (partner 1 µM)
Method in brief: (§1)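 Lung cancer cell lines in 1536-well plates got either a single drug or a fixed anchor-drug dose together with five library-drug doses (not always all listed) in √10 steps, by pin tool, on the day after seeding. Nuclei were counted after 5 days, and relative viability is the treated-to-vehicle ratio of nuclei counts. Values are medians of duplicate plates.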

[2] = compound: O[C@@H](COc1cccc2ncccc12)CN1CCN([C@@H]2c3ccccc3[C@@H]3[C@H](c4ccccc42)C3(F)F)CC1 [Zosuquidar] + COc1cccc2cc(-c3nc([C@H]4CC[C@H](C(=O)O)CC4)n4ncnc(N)c34)[nH]c12 [OSI-027] (partner 0.5 µM)
Method in brief: as §1

[3] = compound: O[C@@H](COc1cccc2ncccc12)CN1CCN([C@@H]2c3ccccc3[C@@H]3[C@H](c4ccccc42)C3(F)F)CC1 [Zosuquidar] + C[C@@H](Oc1cc(-c2cnn(C3CCNCC3)c2)cnc1N)c1c(Cl)ccc(F)c1Cl [Crizotinib] (partner 1 µM)
Method in brief: as §1

| Cell Line | relative viability ([1]; first compound 0.2 µM) | relative viability ([1]; first compound 0.6325 µM) | relative viability ([1]; first compound 2 µM) | relative viability ([1]; first compound 6.325 µM) | relative viability ([1]; first compound 20 µM) | relative viability ([2]; first compound 0.01 µM) | relative viability ([2]; first compound 0.03162 µM) | relative viability ([2]; first compound 0.1 µM) | relative viability ([2]; first compound 0.3162 µM) | relative viability ([2]; first compound 1 µM) | relative viability ([3]; first compound 0.01 µM) | relative viability ([3]; first compound 0.03162 µM) | relative viability ([3]; first compound 0.1 µM) | relative viability ([3]; first compound 0.3162 µM) | relative viability ([3]; first compound 1 µM) |
| --- | --- | --- | --- | --- | --- | --- | --- | --- | --- | --- | --- | --- | --- | --- | --- |
| NCI-H1650 | 0.598 | 0.617 | 0.642 | 0.539 | 0.527 | 0.737 | 0.607 | 0.601 | 0.759 | 0.669 | 0.888 | 1.02 | 0.974 | 1.01 | 1.02 |
| COR-L 105 | 0.786 | 0.932 | 0.647 | 0.774 | 0.705 | 0.595 | 0.679 | 0.519 | 0.79 | 0.613 | 0.953 | 0.727 | 0.788 | 0.838 | 0.73 |
| NCI-H650 | 0.466 | 0.411 | 0.421 | 0.499 | 0.434 | 0.514 | 0.477 | 0.433 | 0.553 | 0.576 | 0.641 | 0.762 | – | 0.731 | 0.721 |
| LXF-289 | 0.677 | 0.776 | 0.75 | 0.659 | 0.775 | 0.744 | 0.862 | 0.741 | 0.856 | 0.915 | 0.768 | 0.861 | 0.799 | 0.816 | 0.876 |
| SK-MES-1 | 1.03 | 1.11 | 1.01 | 0.97 | 0.585 | 0.639 | 0.665 | 0.549 | 0.638 | 0.652 | 0.977 | 0.99 | 0.955 | 1.03 | 1.02 |
| LOU-NH91 | 0.886 | 1.02 | 0.837 | 0.905 | 0.863 | 0.623 | 0.664 | – | 0.781 | 0.713 | 0.733 | 0.738 | 0.691 | 0.736 | 0.736 |
| NCI-H1355 | 0.589 | 0.687 | 0.577 | 0.588 | 0.622 | 0.395 | 0.409 | 0.299 | 0.449 | 0.386 | 1.05 | 0.997 | 0.987 | 1.15 | 1.05 |
| NCI-H460 | – | 0.702 | 0.705 | 0.724 | 0.68 | 0.674 | 0.725 | 0.522 | 0.788 | 0.694 | 0.813 | 0.906 | 1.01 | 0.916 | 1.02 |
| NCI-H2023 | 0.56 | 0.75 | 0.566 | 0.481 | 0.317 | 0.354 | 0.401 | 0.325 | 0.665 | 0.427 | 0.593 | 0.679 | 0.743 | 0.741 | 0.606 |
| NCI-H1666 | 1.06 | 1.04 | 1.13 | 1.01 | 0.981 | 0.844 | 0.919 | 0.8 | 0.957 | 0.957 | 1.02 | 0.975 | 1.18 | 0.986 | 1.08 |
| HARA | 0.529 | 0.553 | 0.422 | 0.509 | 0.767 | 0.49 | – | 0.415 | 0.564 | 0.398 | 0.924 | 1.03 | 1.14 | 1.09 | 1.07 |
| NCI-H358 | 0.706 | 0.733 | 0.586 | 0.719 | 0.689 | 0.779 | 0.769 | 0.618 | 0.736 | 0.734 | 0.602 | 0.497 | 0.807 | 0.497 | 0.532 |
| NCI-H3122 | 0.986 | 0.701 | 0.979 | 0.855 | 1.06 | 0.921 | 1.03 | – | 1.36 | 0.936 | 0.271 | 0.274 | 0.24 | 0.275 | 0.252 |
| 201T | 0.959 | 0.938 | 0.997 | 1.03 | 1.1 | 0.777 | 0.722 | 0.646 | 0.803 | 0.741 | 0.986 | 0.891 | 0.996 | 0.983 | 1.04 |
| SK-LU-1 | 0.734 | 0.86 | 0.856 | 0.836 | 0.823 | 0.369 | 0.35 | 0.401 | 0.432 | 0.33 | 0.974 | 0.981 | 1.1 | 0.932 | 0.911 |
| NCI-H1734 | 0.863 | 0.912 | 0.844 | 0.841 | 0.8 | 0.587 | 0.612 | 0.541 | 0.697 | 0.662 | 0.64 | 0.566 | 0.662 | 0.72 | 0.705 |
| NCI-H1651 | 0.601 | 0.448 | 0.583 | 0.551 | 0.751 | 0.78 | 0.694 | 0.633 | 0.657 | 0.725 | 0.849 | 0.965 | 0.854 | 0.869 | 0.87 |
| PC-3 [JPC-3] | 0.943 | 1.1 | 0.787 | 0.874 | 0.771 | 0.738 | 0.787 | 0.562 | 0.789 | 0.796 | 0.861 | 0.981 | 0.878 | 0.964 | 0.946 |
| NCI-H1915 | 0.523 | 0.549 | 0.478 | 0.534 | 0.557 | 0.642 | 0.624 | 0.529 | 0.637 | 0.599 | 0.868 | 0.938 | 0.887 | 0.882 | 0.909 |
| COR-L23 | 0.476 | 0.491 | 0.405 | 0.472 | 0.404 | 0.738 | 0.702 | 0.688 | 0.858 | 0.757 | 0.661 | 0.699 | 0.787 | 0.647 | 0.716 |
| ChaGo-K-1 | 0.813 | 0.812 | 0.766 | 0.708 | 0.697 | 0.595 | 0.479 | 0.644 | 0.553 | 0.522 | 1.08 | 1.2 | 1.32 | 1.1 | 1.13 |
| HOP-62 | 0.707 | 0.717 | 0.559 | 0.763 | 0.688 | 0.768 | 0.833 | 0.817 | 0.865 | 0.906 | 0.829 | 1.01 | 0.85 | 1 | 0.864 |
